According to patent US11518758B2, “Heteroarylaminopyrimidine amide autophagy inhibitors and methods of use thereof” (Deciphera Pharmaceuticals, LLC, priority 2019, dated 2022):

The compounds below were run against T1, ULK1 kinase (Homo sapiens, UniProt O75385) (assay: Biochemical assay for ULK1.2 (coupled pyruvate kinase/lactate dehydrogenase assay)). Conditions: 19 nM ULK1 (Eurofins), myelin basic protein, 1 mM ATP.
T1 construct: purchased Eurofins 14-959
T1 sequence (O75385 with tags, fused parts or gaps): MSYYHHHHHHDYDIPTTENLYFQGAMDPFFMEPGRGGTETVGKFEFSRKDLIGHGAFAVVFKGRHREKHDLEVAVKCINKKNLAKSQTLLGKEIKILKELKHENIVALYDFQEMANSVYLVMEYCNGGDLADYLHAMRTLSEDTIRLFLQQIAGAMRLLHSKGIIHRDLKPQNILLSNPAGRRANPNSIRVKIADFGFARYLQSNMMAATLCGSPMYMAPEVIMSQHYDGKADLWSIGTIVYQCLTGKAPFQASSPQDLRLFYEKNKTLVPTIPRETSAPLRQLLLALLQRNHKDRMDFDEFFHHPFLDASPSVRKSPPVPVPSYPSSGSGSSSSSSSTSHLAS
Description: Example 174. Biochemical Assay for ULK1.2
Activity of ULK1 kinase was determined spectroscopically using a coupled pyruvate kinase/lactate dehydrogenase assay that continuously monitors the ATP hydrolysis-dependent oxidation of NADH (e.g., Schindler et al. Science (2000) 289: 1938-1942). Assays were conducted in 384-well plates (100 uL final volume) using 19 nM ULK1 (Eurofins CAT #14-959), 0.25 mg/mL myelin basic protein, 1.5 units pyruvate kinase, 2.1 units lactate dehydrogenase, 1 mM phosphoenol pyruvate, 0.28 mM NADH and 1 mM ATP in assay buffer (100 mM Tris, pH 7.5, 15 mM MgCl2, 0.5 mM DTT, 0.1% octyl-glucoside, 0.002% (w/v) BSA, and 0.002% Triton X-100). Inhibition of ULK1 was measured by adding serial diluted test compound (final assay concentration of 1% DMSO). A decrease in absorption at 340 nm was monitored continuously for 6 hours at 30° C. on a multi-mode microplate reader (BioTek). The reaction rate was calculated using the 2-3 h time frame. The reaction rate at each concentration of compound was converted to percent inhibition using controls (i.e. reaction with no test compound and reaction with a known inhibitor) and IC50 values were calculated by fitting a four-parameter sigmoidal curve to the data using Prism (GraphPad software).

IC50 [nM]	Compound
25 to 100	CC(C)CN1CC(n2cc(Nc3ncc(C(F)(F)F)c(NCCCN4CCCCC4=O)n3)cn2)C1 [Example 12]
100 to 500	Cc1nn(CCN2CCCCC2)cc1Nc1ncc(C(F)(F)F)c(NCCCN2CCCCC2=O)n1 [Example 22]
1 to 25	Cc1nn(C2CN(CC(C)C)C2)cc1Nc1ncc(C(F)(F)F)c(NCCCN2CCCC2=O)n1 [Example 128]
25 to 100	CCc1nn(C2CCN(CC)CC2)cc1Nc1ncc(C(F)(F)F)c(NCCCN2CCCCC2=O)n1 [Example 42]
1 to 25	Cc1nn(C2CCN(C(C)C)CC2)cc1Nc1ncc(C(F)(F)F)c(NCCCN2CCCCCC2=O)n1 [Example 85]
100 to 500	CCc1nn(C2CCN(C)CC2)cc1Nc1ncc(Cl)c(NCCCN2CCCCC2=O)n1 [Example 55]
1 to 25	CN1CCC(n2cc(Nc3ncc(C(F)(F)F)c(NCCCN4CCN(C)C4=O)n3)cn2)CC1 [Example 151]
1 to 25	[2H]C([2H])([2H])N1CCC(n2cc(Nc3ncc(Br)c(NCCCN4CCCCC4=O)n3)c(C)n2)CC1 [Example 49]
1 to 25	CC(C)CN1CC(n2cc(Nc3ncc(C(F)(F)F)c(NCCCN4CCCCCC4=O)n3)cn2)C1 [Example 97]
100 to 500	CCN1CCC(n2cc(Nc3ncc(C(F)(F)F)c(NCCCN4CCCC4=O)n3)c(C)n2)CC1 [Example 82]
100 to 500	CC1(C)CCC(=O)N1CCCNc1nc(Nc2cnn(C3CCN(C4CC4)CC3)c2)ncc1Cl [Example 149]
> 500	Cc1nn(C2CN(CC(C)C)C2)cc1Nc1ncc(Cl)c(NCCCN2CCCC2=O)n1 [Example 161]
1 to 25	CN1CCC(n2cc(Nc3ncc(C(F)(F)F)c(NCCCN4CCCCC4=O)n3)cn2)CC1 [Example 10]
1 to 25	[2H]C([2H])([2H])N1CCC(n2cc(Nc3ncc(C(F)(F)F)c(NCCCN4CCCCCC4=O)n3)c(C)n2)CC1 [Example 101]
25 to 100	Cc1nn(CCCN2CCCCC2)cc1Nc1ncc(C(F)(F)F)c(NCCCN2CCCCC2=O)n1 [Example 28]
1 to 25	Cc1nn(C2CCN(C3CCCC3)CC2)cc1Nc1ncc(C(F)(F)F)c(NCCCN2CCCCCC2=O)n1 [Example 93]
1 to 25	[2H]C([2H])([2H])N1CCC(n2cc(Nc3ncc(C(F)(F)F)c(NCCCN4CCCCC4=O)n3)c(CC)n2)CC1 [Example 52]
> 500	Cc1nn(C2CN(CC(C)C)C2)cc1Nc1ncc(Br)c(NCCCN2CCCC2=O)n1 [Example 154]
100 to 500	Cc1nn(CCCN2CCOCC2)cc1Nc1ncc(C(F)(F)F)c(NCCCN2CCCOCC2=O)n1 [Example 112]
25 to 100	CC(C)N1CCC(n2cc(Nc3ncc(Cl)c(NCCCN4CCCCC4=O)n3)cn2)CC1 [Example 5]
1 to 25	CCN1CCC(n2cc(Nc3ncc(C(F)(F)F)c(NCCCN4CCCCC4=O)n3)c(C)n2)CC1 [Example 37]
100 to 500	Cc1nn([C@@H]2CCN(C)C2)cc1Nc1ncc(Cl)c(NCCCN2CCOCCC2=O)n1 [Example 134]
25 to 100	Cc1nn(CCCN(C)C)cc1Nc1ncc(C(F)(F)F)c(NCCCN2CCCCC2=O)n1 [Example 35]
100 to 500	CC1CCN(CCCNc2nc(Nc3cnn(C4CCN(C5CC5)CC4)c3)ncc2Cl)C1=O (stereo not shown) [Example 155]
100 to 500	Cc1nn([C@@H]2CCNC2)cc1Nc1ncc(C(F)(F)F)c(NCCCN2CCCC2=O)n1 [Example 169]
1 to 25	CCc1nn(C2CCN(C)CC2)cc1Nc1ncc(C(F)(F)F)c(NCCCN2CCCCC2=O)n1 [Example 47]

IC50 [nM]	Compound
> 500	Cc1nn([C@@H]2CCN(C)C2)cc1Nc1ncc(Cl)c(NCCCN2CCCC2=O)n1 [Example 160]
1 to 25	CC(C)N1CCC(n2cc(Nc3ncc(C(F)(F)F)c(NCCCN4CCCCCC4=O)n3)cn2)CC1 [Example 88]
100 to 500	Cc1nn(CCCN2CCOCC2)cc1Nc1ncc(C(F)(F)F)c(NCCCN2CCCCC2=O)n1 [Example 30]
100 to 500	[2H]C([2H])([2H])N1CCC(n2cc(Nc3ncc(Cl)c(NCCCN4CCCCC4=O)n3)c(C)n2)CC1 [Example 57]
1 to 25	Cc1nn(C2CCN(CC(C)C)CC2)cc1Nc1ncc(C(F)(F)F)c(NCCCN2CCCCCC2=O)n1 [Example 89]
1 to 25	Cc1nn([C@@H]2CCN(C(C)C)C2)cc1Nc1ncc(C(F)(F)F)c(NCCCN2CCCCCC2=O)n1 [Example 95]
> 500	Cc1nn(CCN2CCOCC2)cc1Nc1ncc(Br)c(NCCCN2CCCCC2=O)n1 [Example 63]
100 to 500	CC(C)CN1CC(n2cc(Nc3ncc(Cl)c(NCCCN4CCCCC4=O)n3)cn2)C1 [Example 11]
100 to 500	CN1CCN(CCCNc2nc(Nc3cnn(C4CCN(C5CC5)CC4)c3)ncc2Cl)C1=O [Example 148]
> 500	Cc1nn(CCN2CCCC2)cc1Nc1ncc(Cl)c(NCCCN2CCCC2=O)n1 [Example 162]
100 to 500	CCc1nn(C2CCN(CC)CC2)cc1Nc1ncc(Cl)c(NCCCN2CCCCC2=O)n1 [Example 46]
1 to 25	Cc1nn(C2CCN(CC3CC3)CC2)cc1Nc1ncc(C(F)(F)F)c(NCCCN2CCCCC2=O)n1 [Example 19]
100 to 500	Cc1nn([C@H]2CCNC2)cc1Nc1ncc(C(F)(F)F)c(NCCCN2CCCC2=O)n1 [Example 167]
1 to 25	Cc1nn([C@H]2CCNC2)cc1Nc1ncc(C(F)(F)F)c(NCCCN2CCCCC2=O)n1 [Example 65]
25 to 100	Cc1nn(C2CCN(C(C)C)CC2)cc1Nc1ncc(Cl)c(NCCCN2CCCCCC2=O)n1 [Example 87]
100 to 500	Cc1nn([C@@H]2CCN(C)C2)cc1Nc1ncc(Cl)c(NCCCN2CCCCC2=O)n1 [Example 24]
25 to 100	Cc1nn([C@@H]2CCN(C(C)C)C2)cc1Nc1ncc(C(F)(F)F)c(NCCCN2CCCCC2=O)n1 [Example 36]
1 to 25	Cc1nn(C2CCN(C3CCC3)CC2)cc1Nc1ncc(C(F)(F)F)c(NCCCN2CCCCCC2=O)n1 [Example 92]
1 to 25	Cc1nn([C@@H]2CCNC2)cc1Nc1ncc(C(F)(F)F)c(NCCCN2CCCCC2=O)n1 [Example 34]
25 to 100	CCN1CCC(n2cc(Nc3ncc(Br)c(NCCCN4CCCCC4=O)n3)c(C)n2)CC1 [Example 50]
25 to 100	CCc1nn(C2CCN(C(C)C)CC2)cc1Nc1ncc(C(F)(F)F)c(NCCCN2CCCCC2=O)n1 [Example 43]
> 500	Cc1nn(CCN2CCOCC2)cc1Nc1ncc(Cl)c(NCCCN2CCCC2=O)n1 [Example 163]
25 to 100	Cc1nn(C2CCN(CCF)CC2)cc1Nc1ncc(C(F)(F)F)c(NCCCN2CCCCC2=O)n1 [Example 59]
> 500	Cc1nn([C@@H]2CCNC2)cc1Nc1ncc(Cl)c(NCCCN2CCCC2=O)n1 [Example 158]
25 to 100	CCc1nn(C2CCN(C(C)C)CC2)cc1Nc1ncc(C(F)(F)F)c(NCCCN2CCCOC2=O)n1 [Example 70]

These compounds were tested on phospho-Serine 318 ATG13 (pATG13), ULK kinase substrate, in A549 (KRAS mutant) cells (assay: pATG13 levels of mutant KRas A549 cells after treatment with ULK inhibitors in combination with trametinib (ELISA)). Conditions: with 250 nM trametinib.
Assay type: cell-based, human
Description: Example 177. Cellular Inhibition of ULK Kinase Substrate ATG13 Protein pATG13 Levels of Mutant KRas A549 Cells after Treatment with ULK Inhibitors in Combination with Trametinib
A549 (KRAS mutant) human lung cancer cells (6,000 cells/well) were added to a 384-well tissue-culture treated plate in 50 μL of pre-warmed DMEM medium supplemented with 10% characterized fetal bovine serum (Invitrogen, Carlsbad, Calif.), 100 units/mL penicillin G, and 100 μg/mL streptomycin and allowed to grow overnight at 37° C., 5% CO2, and 95% humidity. The following day, 10 μL of media containing trametinib or DMSO as a control was added to wells. The final concentration of trametinib in wells was 250 nM. A dose response of a test compound (0.6 μL per well) was added. DMSO (0.6 μL) was added to control wells. The plate was briefly shaken to mix wells and then incubated at 37° C. overnight. The next day, the media was aspirated and cells were washed with Dulbecco's Phosphate Buffered Saline (Gibco). Cells were lysed using MPER lysis buffer (Pierce, Rockford, Ill.) containing Halt Phosphatase and Protease Inhibitors (Pierce, Rockford, Ill.) and Phosphatase inhibitor cocktail 2 (Sigma, St. Louis, Mo.) at 4° C. for 10 minutes with shaking.
Cellular levels of phospho-Serine 318 ATG13 (pATG13) were measured via an ELISA method. Total ATG13 Antibody (Cell Signaling Cat #13273) was used to coat the wells. The plate was incubated at 4° C. overnight and washed with ELISA wash buffer (Biolegend Cat #421601). The wells were then blocked with assay diluent (Biolegend Cat #421203) for 1 hour at room temperature. Plate wells were washed with ELISA wash buffer. Cell lysate was added to wells and incubated at room temperature for 2 hours. Plate wells were washed with ELISA wash buffer. Biotinylated pS318-ATG13 antibody (Rockland Immunochemicals Cat #600-401-C49) was diluted in assay diluent and added to each well and incubated at room temperature for 1 hour. Plate wells were washed with ELISA wash buffer. Streptavidin linked to horseradish peroxidase (Thermo Fisher Cat #21140) was diluted in assay diluent and added to each well and incubated at room temperature for 1 hour. Plate wells were washed with ELISA wash buffer. High sensitivity TMB substrate (Biolegend Cat #421101) was added to each well and incubated at room temperature for 20 minutes. The reaction was stopped with 2N Sulfuric Acid. The plate was analyzed at on a plate reader measuring absorbance at 450 nm and 540 nm (background). Signal was calculated by first subtracting the background absorbance at 540 nm from the absorbance at 450 nm for each well. Next, the background corrected absorbance at 450 nm from blank wells was subtracted from test wells. Data was compared to control wells to determine % ATG13 phosphorylation. GraphPad Prism was used to calculate IC50 values.

IC50 [nM]	Compound
300 to 600	CC(C)CN1CC(n2cc(Nc3ncc(C(F)(F)F)c(NCCCN4CCCCC4=O)n3)cn2)C1 [Example 12]
